Tests used:
Format in all cases: cell-based
[1] = test system: HCV genotype 1a (HCV-1a) replicon cells; assay: HCV genotype 1a replicon cell assay (luciferase, Bright-Glo); details: Hepatitis C virus, 72 h, HCV-1a (H77) replicon cells, 3 days
Description: (§1) The EC50 and CC50 values of anti-HCV compounds were determined by HCV genotype 1a (HCV-1a) and 1b (HCV-1b) stable transfected replication (replicon) cells. The source of genotype 1a replicon is H77 clones containing K1691R, K2040R and S2204I adaptive mutations. The source of genotype 1b replicon is Con1 clones containing E1202G, T1280I and K1846T adaptive mutations.
(§2) HCV 1a (HCV-1a) and 1b (HCV-1b) gene subtype replicon system contains the related HCV gene subtype non-structural protein gene, G418 resistance gene NEO and luciferase gene, which results in that HCV related protein and luciferase can be stably expressed in cells. By detecting the level of expression of luciferase gene, the level of HCV replication can be determined. Therefore, the system is used as a model for screening the activity of anti-HCV compound in vitro.
(§3) The compound powder was dissolved in 100% DMSO. Then the compound was diluted 5 times with 6 points, and added into the cell plate with Echo liquid handler. Ensure the final concentration of DMSO was 0.5%. Each compound was tested in duplicate.
(§4) 4) Diluting cells to 8×10^4 cells/mL with the culture medium, adding the diluted cells into the compound-containing 96-well plate (Greiner, Cat. #655090) (100 μL/well, 8000 cells/well) with automatic liquid separator (Thermo Scientific). Then place into a 37° C., 5% CO2 incubator for 3 days. Cell control well: no compound, only containing 0.5% DMSO.
(§5) 6) Then adding luciferase substrate Bright-Glo, after incubation for 5 minutes, detecting the luciferase activity by microplate reader Envison (wavelength>700 nm); analyzing the anti-HCV inhibitory activity of the compounds according to luminescence data, which was used to calculate EC50 values.
(§6) The EC50 or CC50 values were obtained by nonlinear fitting regression on inhibition percentage (inh %) data with GraphPad Prism software.

[2] = test system: HCV genotype 1b (HCV-1b) replicon cells; assay: HCV genotype 1b replicon cell assay (luciferase, Bright-Glo); details: Hepatitis C virus, 72 h, HCV-1b (Con1) replicon cells, 3 days
Description: as §1, §2, §3, §4, §5, §6

[3] = Cytotoxicity in HCV replicon cells (Cell Titer-fluor)
Description: as §1, §3, §4
5) Adding fluorescence substrate Cell Titer-fluor to the cell well, after incubation for 30 minutes, detecting the signal by microplate reader Envison (Ex at 405 nm and read at 515 nm). The effect of the compounds on the cytotoxicity of HCV replicon cells was analyzed according to the fluorescence data, which was used to calculate the CC50 values.
as §6

With `COC1CN(C(=O)C2CCN(C(=O)c3oc4c(C(F)(F)F)cc(C5CC5)cc4c3Cl)CC2)C1` [YD_0340] the EC50 [1] was 100 to 1000 nM, the EC50 [2] was 100 to 1000 nM and the CC50 at 3 days [3] was > 3000 nM.
In the case of `O=C(c1oc2c(C(F)(F)F)cc(C3CC3)cc2c1Cl)N1CCC(C(=O)N2CC(F)C2)CC1` [YD_0342], the EC50 [1] is reported as 0.1 to 100 nM, the EC50 [2] is reported as 0.1 to 100 nM and the CC50 at 3 days [3] is reported as > 3000 nM.
For `CN(C)C1CN(C(=O)C2CCN(C(=O)c3oc4c(C(F)(F)F)cc(C5CC5)cc4c3Cl)CC2)C1` [YD_0343], the EC50 [1] was 100 to 1000 nM, the EC50 [2] was 1000 to 5000 nM and the CC50 at 3 days [3] was > 3000 nM.
With `COC1(C)CN(C(=O)C2CCN(C(=O)c3oc4c(C(F)(F)F)cc(C5CC5)cc4c3Cl)CC2)C1` [YD_0344] the EC50 [1] was 100 to 1000 nM, the EC50 [2] was 1000 to 5000 nM and the CC50 at 3 days [3] was > 3000 nM.
In the case of `CC1(O)CN(C(=O)C2CCN(C(=O)c3oc4c(C(F)(F)F)cc(C5CC5)cc4c3Cl)CC2)C1` [YD_0345], the EC50 [1] is reported as 100 to 1000 nM, the EC50 [2] is reported as 1000 to 5000 nM and the CC50 at 3 days [3] is reported as > 3000 nM.
In the case of `NC1CN(C(=O)C2CCN(C(=O)c3oc4c(C(F)(F)F)cc(C5CC5)cc4c3Cl)CC2)C1` [YD_0346], the EC50 [1] is reported as 100 to 1000 nM, the EC50 [2] is reported as 100 to 1000 nM and the CC50 at 3 days [3] is reported as > 3000 nM.
For `CC1(C(N)=O)CN(C(=O)C2CCN(C(=O)c3oc4c(C(F)(F)F)cc(C5CC5)cc4c3Cl)CC2)C1` [YD_0348], the EC50 [1] was 100 to 1000 nM, the EC50 [2] was 1000 to 5000 nM and the CC50 at 3 days [3] was > 3000 nM.
For `O=C(c1oc2c(C(F)(F)F)cc(C3CC3)cc2c1Cl)N1CCC(C(=O)N2CC(F)(F)C2)CC1` [YD_0349], the EC50 [1] was 100 to 1000 nM, the EC50 [2] was 100 to 1000 nM and the CC50 at 3 days [3] was > 3000 nM.
In the case of `CC1CN(C(=O)C2CCN(C(=O)c3oc4c(C(F)(F)F)cc(C5CC5)cc4c3Cl)CC2)C1` [YD_0350], the EC50 [1] is reported as 100 to 1000 nM, the EC50 [2] is reported as 100 to 1000 nM and the CC50 at 3 days [3] is reported as > 3000 nM.
For `O=C(O)C1CCN1C(=O)C1CCN(C(=O)c2oc3c(C(F)(F)F)cc(C4CC4)cc3c2Cl)CC1` (stereo not drawn) [YD_0351], the EC50 [1] was 100 to 1000 nM, the EC50 [2] was 1000 to 5000 nM and the CC50 at 3 days [3] was > 3000 nM.
With `N#CC1CN(C(=O)C2CCN(C(=O)c3oc4c(C(F)(F)F)cc(C5CC5)cc4c3Cl)CC2)C1` [YD_0352] the EC50 [1] was 100 to 1000 nM, the EC50 [2] was 1000 to 5000 nM and the CC50 at 3 days [3] was > 3000 nM.
In the case of `NC(=O)C1CN(C(=O)C2CCN(C(=O)c3oc4c(C(F)(F)F)cc(C5CC5)cc4c3Cl)CC2)C1` [YD_0353], the EC50 [1] is reported as 100 to 1000 nM, the EC50 [2] is reported as 1000 to 5000 nM and the CC50 at 3 days [3] is reported as > 3000 nM.
In the case of `O=C(c1oc2c(C(F)(F)F)cc(C3CC3)cc2c1Cl)N1CCC(C(=O)N2CC(CO)C2)CC1` [YD_0355], the EC50 [1] is reported as 100 to 1000 nM, the EC50 [2] is reported as 1000 to 5000 nM and the CC50 at 3 days [3] is reported as > 3000 nM.
For `O=C(c1oc2c(C(F)(F)F)cc(C3CC3)cc2c1Cl)N1CCC(C(=O)N2CC(O)C2)CC1` [YD_0356], the EC50 [1] was 0.1 to 100 nM, the EC50 [2] was 0.1 to 100 nM and the CC50 at 3 days [3] was > 3000 nM.
For `O=C(c1oc2c(C(F)(F)F)cc(C3CC3)cc2c1Cl)N1CCN(C2CCCC2)C(=O)N1` [YD_0357], the EC50 [1] was 0.1 to 100 nM, the EC50 [2] was 0.1 to 100 nM and the CC50 at 3 days [3] was > 3000 nM.
For `O=C(c1oc2c(C(F)(F)F)cc(C3CC3)cc2c1Cl)N1CCN([C@H]2CC[C@H](O)CC2)C(=O)N1` [YD_0365], the EC50 [1] was 0.1 to 100 nM, the EC50 [2] was 0.1 to 100 nM and the CC50 at 3 days [3] was > 3000 nM.
For `CC(C)N1CCN(C(=O)c2oc3c(C(F)(F)F)cc(C4CC4)cc3c2Cl)NC1=O` [YD_0374], the EC50 [1] was 0.1 to 100 nM, the EC50 [2] was 0.1 to 100 nM and the CC50 at 3 days [3] was > 3000 nM.
With `O=C(c1nn2c(C(F)(F)F)cc(C3CC3)cc2c1Cl)N1CCN(C2CCCC2)C(=O)N1` [YH_0369] the EC50 [1] was 100 to 1000 nM, the EC50 [2] was 1000 to 5000 nM and the CC50 at 3 days [3] was > 3000 nM.
With `CC(C)N1CCN(C(=O)c2nn3c(C(F)(F)F)cc(C4CC4)cc3c2Cl)NC1=O` [YH_0373] the EC50 [1] was 0.1 to 100 nM, the EC50 [2] was 0.1 to 100 nM and the CC50 at 3 days [3] was > 3000 nM.
